Measured values: article PMC5433425 (PeerJ, 2017)

Experiments:
[1] = tested on: E. coli AG100tet (AcrAB overexpressing); experiment: MIC, broth microdilution; type: cell-based, Escherichia coli; details: E. coli AG100tet
[2] = tested on: E. coli AG100; experiment: EtBr accumulation by real-time fluorometry; details: EtBr 1 µg/ml + inhibitor 80 µM
[3] = tested on: E. coli AG100A; experiment: microbe, parasite or virus in culture; type: cell-based, Escherichia coli
[4] = tested on: E. coli AG100tet; experiment: EtBr efflux by real-time fluorometry; details: 80 µM
Protocol: Control tubes with only cells and cells with and without 0.4% glucose were included. The fluorescence was measured in a Rotor-Gene 3000 and the data was acquired every 30 s for 30 min at 37 °C. The efflux activity was quantified by comparing the fluorescence data obtained under conditions that promote efflux (presence of glucose and absence of efflux inhibitor) with the data from the control in which the bacteria are under conditions of no efflux (presence of an inhibitor and no energy source).

SMILES: CCCOc1ccc(-c2cc(OCCN3CCNCC3)c3ccccc3n2)cc1 [PQQ4R, 4-(2-(piperazin-1-yl)ethoxy)-2-(4-propoxyphenyl) quinolone]
- MIC [1]: >653.9 µM
- EtBr fluorescence ([2]; cycle 1): 8.891
- EtBr fluorescence ([2]; cycle 2): 15.958
- EtBr fluorescence ([2]; cycle 3): 24.4435
- EtBr fluorescence ([2]; cycle 4): 32.9586
- EtBr fluorescence ([2]; cycle 5): 42.0049
- EtBr fluorescence ([2]; cycle 6): 50.7014
- EtBr fluorescence ([2]; cycle 7): 59.8624
- EtBr fluorescence ([2]; cycle 8): 68.0874
- EtBr fluorescence ([2]; cycle 9): 75.8019
- EtBr fluorescence ([2]; cycle 10): 82.5362
- EtBr fluorescence ([2]; cycle 11): 89.2
- EtBr fluorescence ([2]; cycle 12): 95.2197
- EtBr fluorescence ([2]; cycle 13): 100
- EtBr fluorescence ([2]; cycle 14): 100
- EtBr fluorescence ([2]; cycle 15): 100
- EtBr fluorescence ([2]; cycle 16): 100
- EtBr fluorescence ([2]; cycle 17): 100
- EtBr fluorescence ([2]; cycle 18): 100
- EtBr fluorescence ([2]; cycle 19): 100
- EtBr fluorescence ([2]; cycle 20): 100
- EtBr fluorescence ([2]; cycle 21): 100
- EtBr fluorescence ([2]; cycle 22): 100
- EtBr fluorescence ([2]; cycle 23): 100
- EtBr fluorescence ([2]; cycle 24): 100
- EtBr fluorescence ([2]; cycle 25): 100
- EtBr fluorescence ([2]; cycle 26): 100
- EtBr fluorescence ([2]; cycle 27): 100
- EtBr fluorescence ([2]; cycle 28): 100
- EtBr fluorescence ([2]; cycle 29): 100
- EtBr fluorescence ([2]; cycle 30): 100
- MIC of EtBr in presence of the efflux inhibitor ([3]; AG100A, inhibitor 40 μM): 0.39 µg/mL
- MIC of OFX in presence of the efflux inhibitor ([3]; AG100A, inhibitor 40 μM): 0.03 µg/mL
- MIC of OXA in presence of the efflux inhibitor ([3]; AG100A, inhibitor 40 μM): 1 µg/mL
- MIC of TET in presence of the efflux inhibitor ([3]; AG100A, inhibitor 40 μM): 0.25 µg/mL
- effect on the MIC of the antibiotics ([3]; AG100A, inhibitor 40 μM): no effect
- reduction in EtBr MIC ([3]; AG100A, inhibitor 40 μM): ≈ 8 fold
- growth of AG100A in presence of the inhibitor ([3]; concentrations above 40 µM): did not grow
- Fluorescence raw data, Channel Cycling A.530/585hp ([4]; cycle 1, + glucose): 3.509
- Fluorescence raw data, Channel Cycling A.530/585hp ([4]; cycle 1, without glucose): 3.29
- Fluorescence raw data, Channel Cycling A.530/585hp ([4]; cycle 2, + glucose): 3.253
- Fluorescence raw data, Channel Cycling A.530/585hp ([4]; cycle 2, without glucose): 3.046
- Fluorescence raw data, Channel Cycling A.530/585hp ([4]; cycle 3, + glucose): 3.181
- Fluorescence raw data, Channel Cycling A.530/585hp ([4]; cycle 3, without glucose): 3.057
- Fluorescence raw data, Channel Cycling A.530/585hp ([4]; cycle 4, without glucose): 3.005
- Fluorescence raw data, Channel Cycling A.530/585hp ([4]; cycle 5, without glucose): 2.971
- Fluorescence raw data, Channel Cycling A.530/585hp ([4]; cycle 6, without glucose): 3.106
- Fluorescence raw data, Channel Cycling A.530/585hp ([4]; cycle 7, without glucose): 3.154
- Fluorescence raw data, Channel Cycling A.530/585hp ([4]; cycle 8, without glucose): 3.202
- Fluorescence raw data, Channel Cycling A.530/585hp ([4]; cycle 9, + glucose): 3.419
- Fluorescence raw data, Channel Cycling A.530/585hp ([4]; cycle 9, without glucose): 3.159
- Fluorescence raw data, Channel Cycling A.530/585hp ([4]; cycle 10, + glucose): 3.524
- Fluorescence raw data, Channel Cycling A.530/585hp ([4]; cycle 10, without glucose): 3.043
- Fluorescence raw data, Channel Cycling A.530/585hp ([4]; cycle 11, + glucose): 3.644
- Fluorescence raw data, Channel Cycling A.530/585hp ([4]; cycle 11, without glucose): 3.142
- Fluorescence raw data, Channel Cycling A.530/585hp ([4]; cycle 12, + glucose): 3.857
- Fluorescence raw data, Channel Cycling A.530/585hp ([4]; cycle 12, without glucose): 3.158
- Fluorescence raw data, Channel Cycling A.530/585hp ([4]; cycle 13, + glucose): 3.873
- Fluorescence raw data, Channel Cycling A.530/585hp ([4]; cycle 13, without glucose): 3.143
- Fluorescence raw data, Channel Cycling A.530/585hp ([4]; cycle 14, + glucose): 3.954
- Fluorescence raw data, Channel Cycling A.530/585hp ([4]; cycle 14, without glucose): 3.212
- Fluorescence raw data, Channel Cycling A.530/585hp ([4]; cycle 15, + glucose): 4.044
- Fluorescence raw data, Channel Cycling A.530/585hp ([4]; cycle 15, without glucose): 3.129
- Fluorescence raw data, Channel Cycling A.530/585hp ([4]; cycle 16, + glucose): 4.17
- Fluorescence raw data, Channel Cycling A.530/585hp ([4]; cycle 16, without glucose): 3.186
- Fluorescence raw data, Channel Cycling A.530/585hp ([4]; cycle 17, + glucose): 4.316
- Fluorescence raw data, Channel Cycling A.530/585hp ([4]; cycle 17, without glucose): 3.1931
- Fluorescence raw data, Channel Cycling A.530/585hp ([4]; cycle 18, + glucose): 4.457
- Fluorescence raw data, Channel Cycling A.530/585hp ([4]; cycle 18, without glucose): 3.175
- Fluorescence raw data, Channel Cycling A.530/585hp ([4]; cycle 19, + glucose): 4.5
- Fluorescence raw data, Channel Cycling A.530/585hp ([4]; cycle 19, without glucose): 3.177
- Fluorescence raw data, Channel Cycling A.530/585hp ([4]; cycle 20, + glucose): 4.55
- Fluorescence raw data, Channel Cycling A.530/585hp ([4]; cycle 20, without glucose): 3.2463
- Fluorescence raw data, Channel Cycling A.530/585hp ([4]; cycle 21, + glucose): 4.567
- Fluorescence raw data, Channel Cycling A.530/585hp ([4]; cycle 21, without glucose): 3.257
- Fluorescence raw data, Channel Cycling A.530/585hp ([4]; cycle 22, + glucose): 4.692
- Fluorescence raw data, Channel Cycling A.530/585hp ([4]; cycle 22, without glucose): 3.214
- Fluorescence raw data, Channel Cycling A.530/585hp ([4]; cycle 23, + glucose): 4.73
- Fluorescence raw data, Channel Cycling A.530/585hp ([4]; cycle 23, without glucose): 3.261
- Fluorescence raw data, Channel Cycling A.530/585hp ([4]; cycle 24, + glucose): 4.823
- Fluorescence raw data, Channel Cycling A.530/585hp ([4]; cycle 24, without glucose): 3.277
- Fluorescence raw data, Channel Cycling A.530/585hp ([4]; cycle 25, + glucose): 4.864
- Fluorescence raw data, Channel Cycling A.530/585hp ([4]; cycle 25, without glucose): 3.306
- Fluorescence raw data, Channel Cycling A.530/585hp ([4]; cycle 26, + glucose): 4.922
- Fluorescence raw data, Channel Cycling A.530/585hp ([4]; cycle 26, without glucose): 3.351
- Fluorescence raw data, Channel Cycling A.530/585hp ([4]; cycle 27, + glucose): 4.884
- Fluorescence raw data, Channel Cycling A.530/585hp ([4]; cycle 27, without glucose): 3.344
- Fluorescence raw data, Channel Cycling A.530/585hp ([4]; cycle 28, + glucose): 5.012
- Fluorescence raw data, Channel Cycling A.530/585hp ([4]; cycle 28, without glucose): 3.341
- Fluorescence raw data, Channel Cycling A.530/585hp ([4]; cycle 29, + glucose): 5.042
- Fluorescence raw data, Channel Cycling A.530/585hp ([4]; cycle 29, without glucose): 3.312
- Fluorescence raw data, Channel Cycling A.530/585hp ([4]; cycle 30, + glucose): 5.087
- Fluorescence raw data, Channel Cycling A.530/585hp ([4]; cycle 30, without glucose): 3.355
- Fluorescence raw data, Channel Cycling A.530/585hp ([4]; cycle 31, + glucose): 5.094
- Fluorescence raw data, Channel Cycling A.530/585hp ([4]; cycle 31, without glucose): 3.321
- Fluorescence raw data, Channel Cycling A.530/585hp ([4]; cycle 32, + glucose): 5.074
- Fluorescence raw data, Channel Cycling A.530/585hp ([4]; cycle 32, without glucose): 3.301
- Fluorescence raw data, Channel Cycling A.530/585hp ([4]; cycle 33, + glucose): 5.085
- Fluorescence raw data, Channel Cycling A.530/585hp ([4]; cycle 33, without glucose): 3.3487
- Fluorescence raw data, Channel Cycling A.530/585hp ([4]; cycle 34, + glucose): 5.136
- Fluorescence raw data, Channel Cycling A.530/585hp ([4]; cycle 34, without glucose): 3.377
- Fluorescence raw data, Channel Cycling A.530/585hp ([4]; cycle 35, + glucose): 5.101
- Fluorescence raw data, Channel Cycling A.530/585hp ([4]; cycle 35, without glucose): 3.39
- Fluorescence raw data, Channel Cycling A.530/585hp ([4]; cycle 36, + glucose): 5.167
- Fluorescence raw data, Channel Cycling A.530/585hp ([4]; cycle 36, without glucose): 3.3989
- Fluorescence raw data, Channel Cycling A.530/585hp ([4]; cycle 37, + glucose): 5.0249
- Fluorescence raw data, Channel Cycling A.530/585hp ([4]; cycle 37, without glucose): 3.336
- Fluorescence raw data, Channel Cycling A.530/585hp ([4]; cycle 38, + glucose): 5.139
- Fluorescence raw data, Channel Cycling A.530/585hp ([4]; cycle 38, without glucose): 3.322
- Fluorescence raw data, Channel Cycling A.530/585hp ([4]; cycle 39, + glucose): 5.07
- Fluorescence raw data, Channel Cycling A.530/585hp ([4]; cycle 39, without glucose): 3.367
- Fluorescence raw data, Channel Cycling A.530/585hp ([4]; cycle 40, + glucose): 5.071
- Fluorescence raw data, Channel Cycling A.530/585hp ([4]; cycle 40, without glucose): 3.292
- Fluorescence raw data, Channel Cycling A.530/585hp ([4]; cycle 41, + glucose): 5.036
- Fluorescence raw data, Channel Cycling A.530/585hp ([4]; cycle 41, without glucose): 3.413
- Fluorescence raw data, Channel Cycling A.530/585hp ([4]; cycle 42, + glucose): 4.946
- Fluorescence raw data, Channel Cycling A.530/585hp ([4]; cycle 42, without glucose): 3.2813
- Fluorescence raw data, Channel Cycling A.530/585hp ([4]; cycle 43, + glucose): 5.023
- Fluorescence raw data, Channel Cycling A.530/585hp ([4]; cycle 43, without glucose): 3.329
- Fluorescence raw data, Channel Cycling A.530/585hp ([4]; cycle 44, + glucose): 4.8625
- Fluorescence raw data, Channel Cycling A.530/585hp ([4]; cycle 44, without glucose): 3.331
- Fluorescence raw data, Channel Cycling A.530/585hp ([4]; cycle 45, without glucose): 3.333
- Fluorescence raw data, Channel Cycling A.530/585hp ([4]; cycle 46, without glucose): 3.356
- Fluorescence raw data, Channel Cycling A.530/585hp ([4]; cycle 47, without glucose): 3.3344
- Fluorescence raw data, Channel Cycling A.530/585hp ([4]; cycle 48, without glucose): 3.246
- Fluorescence raw data, Channel Cycling A.530/585hp ([4]; cycle 49, without glucose): 3.317
- Fluorescence raw data, Channel Cycling A.530/585hp ([4]; cycle 50, without glucose): 3.306
- Fluorescence raw data, Channel Cycling A.530/585hp ([4]; cycle 51, without glucose): 3.275
- Fluorescence raw data, Channel Cycling A.530/585hp ([4]; cycle 52, without glucose): 3.293
- Fluorescence raw data, Channel Cycling A.530/585hp ([4]; cycle 53, without glucose): 3.359
- Fluorescence raw data, Channel Cycling A.530/585hp ([4]; cycle 54, without glucose): 3.295
- Fluorescence raw data, Channel Cycling A.530/585hp ([4]; cycle 55, without glucose): 3.253
- Fluorescence raw data, Channel Cycling A.530/585hp ([4]; cycle 56, without glucose): 3.229
- Fluorescence raw data, Channel Cycling A.530/585hp ([4]; cycle 57, without glucose): 3.179
- Fluorescence raw data, Channel Cycling A.530/585hp ([4]; cycle 58, without glucose): 3.169
- Fluorescence raw data, Channel Cycling A.530/585hp ([4]; cycle 59, without glucose): 3.145
- Fluorescence raw data, Channel Cycling A.530/585hp ([4]; cycle 60, without glucose): 3.211
- Fluorescence raw data, Channel Cycling A.530/585hp ([4]; cycle 61, without glucose): 3.105
